Biological target: Acetylcholinesterase (Homo sapiens, UniProt P22303)
Sequence (P22303 whole entry): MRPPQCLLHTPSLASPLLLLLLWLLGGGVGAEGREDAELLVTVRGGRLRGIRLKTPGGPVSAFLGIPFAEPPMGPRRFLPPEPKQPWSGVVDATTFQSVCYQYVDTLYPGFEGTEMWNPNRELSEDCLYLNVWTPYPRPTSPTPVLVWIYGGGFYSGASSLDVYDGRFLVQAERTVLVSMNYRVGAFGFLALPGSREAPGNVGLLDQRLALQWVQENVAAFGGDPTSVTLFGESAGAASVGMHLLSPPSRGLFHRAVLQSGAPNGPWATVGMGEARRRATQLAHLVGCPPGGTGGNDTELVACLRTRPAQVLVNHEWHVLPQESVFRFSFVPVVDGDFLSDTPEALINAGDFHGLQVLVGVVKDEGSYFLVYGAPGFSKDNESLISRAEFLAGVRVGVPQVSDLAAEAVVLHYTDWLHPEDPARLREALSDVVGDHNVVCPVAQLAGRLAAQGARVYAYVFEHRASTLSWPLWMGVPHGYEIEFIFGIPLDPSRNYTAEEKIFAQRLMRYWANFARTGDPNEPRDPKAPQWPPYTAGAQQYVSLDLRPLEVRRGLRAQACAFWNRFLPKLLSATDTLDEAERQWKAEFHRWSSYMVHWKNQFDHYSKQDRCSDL
Description: Inhibitory concentration required against acetylcholinesterase activity

`O=C1CCN(Cc2ccccc2)C/C1=C\c1c[nH]c2ccccc12` and `COc1ccc2[nH]cc(/C=C3\CN(Cc4ccccc4)CCC3=O)c2c1` are within 1.5-fold of each other in IC50: 8 µM for the first, 6 µM for the second.

`O=C1CCN(Cc2ccccc2)C/C1=C\c1cn(C(=O)c2ccc([N+](=O)[O-])cc2)c2ccccc12` and `O=C1CCN(Cc2ccccc2)C/C1=C\c1cn(C(=O)c2ccc(F)cc2)c2ccccc12` are within 1.5-fold of each other in IC50: 50 µM for the first, 60 µM for the second.

`O=C1CCN(Cc2ccccc2)C/C1=C\c1cccn1C(=O)c1ccccc1` and `O=C1CCN(Cc2ccccc2)C/C1=C\c1ccn(C(=O)c2ccccc2)c1` are the same in IC50: 30 µM for the first, 30 µM for the second.

First: CC(=O)n1cc(/C=C2\CN(Cc3ccccc3)CCC2=O)c2ccccc21
Second: CC(C)(C)OC(=O)n1cc(/C=C2\CN(Cc3ccccc3)CCC2=O)c2ccccc21
The IC50 of the first is 2.7-fold lower: 11 µM for the first, 30 µM for the second. The first is the more potent here.

First: Cc1[nH]c(C)c(/C=C2\CN(Cc3ccccc3)CCC2=O)c1C=O
Second: O=C1CCN(Cc2ccccc2)C/C1=C\c1ccc[nH]1
The IC50 of the first is 2.7-fold higher: 30 µM for the first, 11 µM for the second. The second is the more potent here.

`O=C1CCN(Cc2ccccc2)C/C1=C\c1cn(C(=O)c2ccccc2)c2ccccc12` and `O=C1CCN(Cc2ccccc2)C/C1=C\c1cn(C(=O)c2ccc(Cl)cc2)c2ccccc12` are within 1.5-fold of each other in IC50: 70 µM for the first, 50 µM for the second.

`COc1ccc2c(c1)c(/C=C1\CN(Cc3ccccc3)CCC1=O)cn2C(=O)c1ccccc1` and `COc1ccc(C(=O)n2cc(/C=C3\CN(Cc4ccccc4)CCC3=O)c3ccccc32)cc1` are within 1.5-fold of each other in IC50: 80 µM for the first, 70 µM for the second.

Compared with `N#Cc1ccc(C(=O)n2cc(/C=C3\CN(Cc4ccccc4)CCC3=O)c3ccccc32)cc1`, `O=C1CCN(Cc2ccccc2)C/C1=C\c1cn(Cc2ccccc2)c2ccccc12` is higher in IC50: 20 µM for the first, greater than 100 µM for the second.

First: O=C1CCN(Cc2ccccc2)C/C1=C\c1c[nH]c2ccc(OCc3ccccc3)cc12
Second: O=C1CCN(Cc2ccccc2)C/C1=C\c1cc[nH]c1
The IC50 of the first is 4.2-fold higher: 25 µM for the first, 6 µM for the second. The second is the more potent here.

Compared with `O=C1/C(=C/c2ccc[nH]2)CN(Cc2ccccc2)C/C1=C\c1ccc[nH]1`, `O=C1/C(=C/c2cc[nH]c2)CN(Cc2ccccc2)C/C1=C\c1cc[nH]c1` is 3-fold lower in IC50: 18 µM for the first, 6 µM for the second.
